Patent US20240336601A1 (Chulalongkorn University, priority 2020, published 2024)

Tests used:
PD-1/PD-L1 interaction = biological target: T1, PD-1/PD-L1 interaction (Homo sapiens, UniProt Q9NZQ7); assay: PD-1/PD-L1 blockage cell-based bioassay (Jurkat NFAT luciferase / CHO-PDL1 co-culture); settings: Jurkat NFAT cells co-cultured with CHO-PDL1 cells, 6 h, luminescence
T1 construct: expressed in transfected cells

[1] = biological target: interaction between PD-1 and PD-L1 (Homo sapiens, UniProt Q9NZQ7); assay: PD-1/PD-L1 protein-protein interaction assay (ALPHA); format: binding; settings: 2 nM His-tagged human PD-L1, 0.6 nM PD-1-Fc, AlphaScreen
Chain of interaction between PD-1 and PD-L1 (Q9NZQ7 19-238 limits assumed): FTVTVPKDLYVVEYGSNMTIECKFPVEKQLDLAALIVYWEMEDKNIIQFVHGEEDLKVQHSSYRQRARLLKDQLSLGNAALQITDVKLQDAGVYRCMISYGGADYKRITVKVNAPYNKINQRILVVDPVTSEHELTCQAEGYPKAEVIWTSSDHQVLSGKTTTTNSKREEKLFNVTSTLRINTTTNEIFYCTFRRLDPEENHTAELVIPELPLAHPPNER

T1 sequence (Q9NZQ7 19-290): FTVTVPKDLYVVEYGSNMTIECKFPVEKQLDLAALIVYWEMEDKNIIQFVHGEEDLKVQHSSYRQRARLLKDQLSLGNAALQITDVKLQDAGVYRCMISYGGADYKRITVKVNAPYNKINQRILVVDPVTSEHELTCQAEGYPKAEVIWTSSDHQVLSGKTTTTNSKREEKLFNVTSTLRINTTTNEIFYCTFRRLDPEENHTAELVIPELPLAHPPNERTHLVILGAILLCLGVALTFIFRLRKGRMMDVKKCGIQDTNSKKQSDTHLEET

IC50 (PD-1/PD-L1 interaction) [nM]	IC50 [1] [nM]	Structure (SMILES)
> 2000	10 to 100	COc1cc(-n2ccc3c(-c4ccc5c(c4)OCCO5)cccc32)cc(OC)c1CNC(C)(CO)C(=O)O (centres unmarked) [Example 1, 2-((4-(4-(2,3-dihydrobenzo[b][1,4]dioxin-6-yl)-1H-indol-1-yl)-2,6-dimethoxybenzyl)amino)-3-hydroxy-2-methylpropanoic acid]
> 2000	1 to 10	COc1cc(-n2ccc3c(-c4cccc(-c5ccc(CN6CC(C)(O)C6)c(OC)n5)c4Cl)cccc32)cc(OC)c1CN1CC(C)(O)C1 [Example 28]
> 2000	1 to 10	COc1cc(-n2ccc3c(-c4cccc(-c5ccc(CN6CC7(C6)CN(C(C)=O)C7)c(OC)n5)c4Cl)cccc32)cc(OC)c1CNC[C@@H]1CCC(=O)N1 [Example 32]
> 2000	10 to 100	COc1cc(-n2ccc3c(-c4cccc(-c5ccc(CNCC6CNC6)c(OC)n5)c4Cl)cccc32)cc(OC)c1CNC[C@@H]1CCC(=O)N1 [Example 33]
> 2000	1 to 10	COc1cc(-n2ccc3c(-c4cccc(-c5ccc(CN6CC[C@@H](O)C6)c(OC)n5)c4Cl)ccnc32)cc(OC)c1CNC[C@@H]1CCC(=O)N1 [Example 34]
201 to 2000	1 to 10	COc1cc(-n2ccc3c(-c4cccc(-c5ccc(CN6CC(C)(O)C6)c(OC)n5)c4Cl)cccc32)cc(OC)c1CNC[C@@H]1CCC(=O)N1 [Example 35]
201 to 2000	1 to 10	COc1cc(-n2ccc3c(-c4cccc(-c5ccc(CN6CC(C)(C(=O)O)C6)c(OC)n5)c4Cl)cccc32)cc(OC)c1CNC[C@@H]1CCC(=O)N1 [Example 37]
> 2000	10 to 100	COc1cc(-n2ccc3c(-c4cccc(-c5ccc(CNC[C@@H]6CCC(=O)N6)c(OC)n5)c4Cl)cccc32)cc(OC)c1CN1CC[C@@H](NC(C)=O)C1 [Example 38]
201 to 2000	< 1	COc1cc(-n2ccc3c(-c4cccc(-c5ccc(CNC[C@@H]6CCC(=O)N6)c(OC)n5)c4Cl)cccc32)cc(OC)c1CNCC(C)(C)C(N)=O [Example 39]
< 200	< 1	COc1cc(-n2ccc3c(-c4cccc(-c5ccc(CNC[C@@H]6CCC(=O)N6)c(OC)n5)c4Cl)cccc32)cc(OC)c1CNCC(C)(C)C(=O)O [Example 42]
> 2000	1 to 10	COc1cc(-n2ccc3c(-c4cccc(-c5ccc(CNC[C@@H]6CCC(=O)N6)c(OC)n5)c4Cl)ccnc32)cc(OC)c1CN1CC(C)(C(=O)NC2CC2)C1 [Example 46]
< 200	< 1	COc1cc(-n2ncc3c(-c4cccc(-c5ccc(CNC[C@H]6C[C@@H](O)C6)c(OC)n5)c4Cl)cccc32)cc(OC)c1CN1CC(C)(C(=O)O)C1 [Example 47]
> 2000	10 to 100	COc1cc(-n2ccc3c(-c4cccc(-c5ccc(CNCC(C)(C)C(=O)O)c(OC)n5)c4Cl)cccc32)cc(OC)c1CNC[C@@H]1CCC(=O)N1 [Example 48]
> 2000	10 to 100	COC(=O)C1CC[C@H](NCc2ccc(-c3cccc(-c4cccc5c4ccn5-c4cc(OC)c(CNC[C@@H]5CCC(=O)N5)c(OC)c4)c3Cl)nc2OC)C1 (some centres unmarked) [Example 50]
201 to 2000	< 1	COc1cc(-n2ccc3c(-c4cccc(-c5ccc(CNC[C@@H]6CCC(=O)N6)c(OC)n5)c4Cl)cccc32)cc(OC)c1CN1CC(C)(O)C1 [Example 53]
> 2000	10 to 100	COc1cc(-n2ncc3c(-c4cccc(-c5ccc(CN6CC(C)(O)C6)c(OC)n5)c4Cl)cccc32)cc(OC)c1CNC[C@@H]1CCC(=O)N1 [Example 54]
201 to 2000	1 to 10	COc1cc(-n2ncc3c(-c4cccc(-c5ccc(CNC[C@H]6C[C@@H](O)C6)c(OC)n5)c4Cl)cccc32)cc(OC)c1CNC[C@@H]1CCC(=O)N1 [Example 55]
	> 100	c1cc(-c2ccc3c(c2)OCCO3)c2ccn(-c3nc4c(s3)CNCC4)c2c1 [Example 59, 2-(4-(2,3-dihydrobenzo[b] [1,4]dioxin-6-yl)-1H-indol-1-yl)-4,5,6,7-tetrahydrothiazolo[5,4-c]pyridine]
	> 100	COc1nc(-n2ccc3c(-c4ccc5c(c4)OCCO5)cccc32)cnc1CNC[C@@H]1CCC(=O)N1 [Example 60]
	> 100	COc1cc(-n2ccc3c(-c4ccc5c(c4)OCCO5)cccc32)cnc1CNC[C@@H]1CCC(=O)N1 [Example 61, (S)-5-((((5-(4-(2,3-dihydrobenzo[b][1,4]dioxin-6-yl)-1H-indol-1-yl)-3-methoxypyridin-2-yl)methyl)amino)methyl)pyrrolidin-2-one]
	> 100	Cc1nn(CCNC[C@@H]2CCC(=O)N2)c2ccc(-n3ccc4c(-c5ccc6c(c5)OCCO6)cccc43)cc12 [Example 62, (S)-5-(((2-(5-(4-(2,3-dihydrobenzo[b] [1,4]dioxin-6-yl)-1H-indol-1-yl)-3-methyl-1H-indazol-1-yl)ethyl)amino)methyl)pyrrolidin-2-one]
	> 100	Cc1cc2cc(CNC[C@@H]3CCC(=O)N3)cnc2c(-n2ccc3c(-c4ccc5c(c4)OCCO5)cccc32)n1 [Example 63, (S)-5-((((8-(4-(2,3-dihydrobenzo[b][1,4]dioxin-6-yl)-1H-indol-1-yl)-6-methyl-1,7-naphthyridin-3-yl)methyl)amino)methyl)pyrrolidin-2-one]
> 2000	1 to 10	COc1cc(-n2ccc3c(-c4cccc5c4ccn5-c4cc(OC)c(CNC[C@@H]5CCC(=O)N5)c(OC)c4)cccc32)cc(OC)c1CNC[C@@H]1CCC(=O)N1 [Example 64, (5S,5′S)-5,5′-((((1H,1′H-[4,4′-biindole]-1,1′-diylbis(2,6-dimethoxy-4,1-phenylene))bis(methylene))bis(azanediyl))bis(methylene))bis(pyrrolidin-2-one)]
201 to 2000	1 to 10	COc1cc(-n2ccc3c(-c4cccc(-c5cnc(CNC[C@@H]6CCC(=O)N6)c(OC)n5)c4Cl)cccc32)cc(OC)c1CNC[C@@H]1CCC(=O)N1 [Example 65, (S)-5-((((5-(2-chloro-3-(1-(3,5-dimethoxy-4-(((((S)-5-oxopyrrolidin-2-yl)methyl)amino)methyl)phenyl)-1H-indol-4-yl)phenyl)-3-methoxypyrazin-2-yl)methyl)amino)methyl)pyrrolidin-2-one]
< 200	< 1	COc1cc(-n2ncc3c(-c4cccc(-c5ccc(CNC[C@@H]6CCC(=O)N6)c(OC)n5)c4Cl)cccc32)cc(OC)c1CNCC1(C(=O)O)CC1 [Example 66, (S)-1-(((4-(4-(2-chloro-3-(6-methoxy-5-((((5-oxopyrrolidin-2-yl)methyl)amino)methyl)pyridin-2-yl)phenyl)-1H-indazol-1-yl)-2,6-dimethoxybenzyl)amino)methyl)cyclopropanecarboxylic acid]
	> 100	COc1nc(N2CCc3c(-c4ccc5c(c4)OCCO5)cccc32)ccc1CNC[C@@H]1CCC(=O)N1 [Example 80, (S)-5-((((6-(4-(2,3-dihydrobenzo[b][1,4]dioxin-6-yl)indolin-1-yl)-2-methoxypyridin-3-yl)methyl)amino)methyl)pyrrolidin-2-one]
	> 100	Cc1cc(CN2CC(C)(C(=O)O)C2)cc(-n2ccc3c(-c4ccc5c(c4)OCCO5)cccc32)n1 [Example 86, 1-((2-(4-(2,3-dihydrobenzo[b][1,4]dioxin-6-yl)-1H-indol-1-yl)-6-methylpyridin-4-yl)methyl)-3-methylazetidine-3-carboxylic acid]
